Data reported in patent US9505721B2, “Aromatic imide compound and method for producing same” (AZ ELECTRONIC MATERIALS (LUXEMBOURG) S.A.R.L., priority 2012, dated 2016).

Legend:
[1] = Ultraviolet and visible absorption spectrum (absorbance at i-, h- and g-line); type: physicochemical; settings: measurement solvent dichloromethane
Procedure: [3] Ultraviolet and visible absorption spectrum Types of machines: Varian Cary4000 manufactured by Agilent Technologies, Inc.
(§1) Measurement solvent: Dichloromethane
Absorption spectrums of compounds obtained in Examples 1 to 5 were measured. Furthermore, N-trifluoromethanesulfonyloxy-1,8-naphthalimide was used as a comparative example.

[2] = Evaluation test of acid generating ability (UV irradiation, BCG pH probe); type: physicochemical; settings: solution in dichloromethane with BCG, before irradiation
Procedure: It was measured and evaluated by devices and a method (Evaluation test of acid generating ability) described below whether compounds obtained in Examples above acted as an acid generator under photoirradiation. The actual evaluation was conducted by use of Compound 1H. Devices used in evaluation are as follows.
as §1
(1) […] Compound 1H solution in dichloromethane was prepared and a few drops of 50% bromocresolgreen (BCG) solution in ethanol were added in this solution as pH probe.
(2) The absorption spectrum of the solution was measured and it was checked that there are maximum absorption spectrums of Compound 1H in 300-400 nm and BOG in 630 nm. The color of this solution was dark blue.
(3) The absorption spectrum of the solution was measured every 2 minutes while irradiating the solution described (2) above by UV lamp. At this time, the progress of attenuation concerning absorption maximum of BCG spectrum and the discoloration situation of dark blue color in the solution due to the pH decline of the system by generation of acids were observed by eyes.

Structure (SMILES) | absorbance 365 nm (i-line) [1] | absorbance 405 nm (h-line) [1] | absorbance 436 nm (g-line) [1] | maximum absorption spectrum [2]
O=C1c2cccc3cccc(c23)C(=O)N1OS(=O)(=O)C(F)(F)F [Comparative example, N-trifluoromethanesulfonyloxy-1,8-naphthalimide, reference compound] | 0.02925 | 0.005575 | 0.004642 | 
O=C1c2cccc3c(C#Cc4ccccc4)ccc(c23)C(=O)N1OS(=O)(=O)C(F)(F)F [Compound 1H, N-trifluoromethanesulfonyloxy-4-phenylethynyl-1,8-naphthalimide] | 0.4162 | 0.5112 | 0.01499 | 300-400 nm
